Reference: US9382258B2, “Agents for treating pain and uses thereof” (AbbVie Inc., priority 2012, dated 2016)

These compounds were tested against T1, human Cav2.2 (Homo sapiens, UniProt Q00975) (assay: Calcium flux (FLIPR, Calcium 4 dye) in IMR32 cells endogenously expressing human Cav2.2). Conditions: 60 minute pre-incubation, 2 μM nifedipine to block L-type channels, depolarized with 80 mM KCl, 5 mM CaCl2, average of n≥2 runs unless marked *.
T1 construct: cells endogenously expressing human Cav2.2; endogenous in cells; host or cells: IMR32 cells
T1 sequence (Q00975 whole entry): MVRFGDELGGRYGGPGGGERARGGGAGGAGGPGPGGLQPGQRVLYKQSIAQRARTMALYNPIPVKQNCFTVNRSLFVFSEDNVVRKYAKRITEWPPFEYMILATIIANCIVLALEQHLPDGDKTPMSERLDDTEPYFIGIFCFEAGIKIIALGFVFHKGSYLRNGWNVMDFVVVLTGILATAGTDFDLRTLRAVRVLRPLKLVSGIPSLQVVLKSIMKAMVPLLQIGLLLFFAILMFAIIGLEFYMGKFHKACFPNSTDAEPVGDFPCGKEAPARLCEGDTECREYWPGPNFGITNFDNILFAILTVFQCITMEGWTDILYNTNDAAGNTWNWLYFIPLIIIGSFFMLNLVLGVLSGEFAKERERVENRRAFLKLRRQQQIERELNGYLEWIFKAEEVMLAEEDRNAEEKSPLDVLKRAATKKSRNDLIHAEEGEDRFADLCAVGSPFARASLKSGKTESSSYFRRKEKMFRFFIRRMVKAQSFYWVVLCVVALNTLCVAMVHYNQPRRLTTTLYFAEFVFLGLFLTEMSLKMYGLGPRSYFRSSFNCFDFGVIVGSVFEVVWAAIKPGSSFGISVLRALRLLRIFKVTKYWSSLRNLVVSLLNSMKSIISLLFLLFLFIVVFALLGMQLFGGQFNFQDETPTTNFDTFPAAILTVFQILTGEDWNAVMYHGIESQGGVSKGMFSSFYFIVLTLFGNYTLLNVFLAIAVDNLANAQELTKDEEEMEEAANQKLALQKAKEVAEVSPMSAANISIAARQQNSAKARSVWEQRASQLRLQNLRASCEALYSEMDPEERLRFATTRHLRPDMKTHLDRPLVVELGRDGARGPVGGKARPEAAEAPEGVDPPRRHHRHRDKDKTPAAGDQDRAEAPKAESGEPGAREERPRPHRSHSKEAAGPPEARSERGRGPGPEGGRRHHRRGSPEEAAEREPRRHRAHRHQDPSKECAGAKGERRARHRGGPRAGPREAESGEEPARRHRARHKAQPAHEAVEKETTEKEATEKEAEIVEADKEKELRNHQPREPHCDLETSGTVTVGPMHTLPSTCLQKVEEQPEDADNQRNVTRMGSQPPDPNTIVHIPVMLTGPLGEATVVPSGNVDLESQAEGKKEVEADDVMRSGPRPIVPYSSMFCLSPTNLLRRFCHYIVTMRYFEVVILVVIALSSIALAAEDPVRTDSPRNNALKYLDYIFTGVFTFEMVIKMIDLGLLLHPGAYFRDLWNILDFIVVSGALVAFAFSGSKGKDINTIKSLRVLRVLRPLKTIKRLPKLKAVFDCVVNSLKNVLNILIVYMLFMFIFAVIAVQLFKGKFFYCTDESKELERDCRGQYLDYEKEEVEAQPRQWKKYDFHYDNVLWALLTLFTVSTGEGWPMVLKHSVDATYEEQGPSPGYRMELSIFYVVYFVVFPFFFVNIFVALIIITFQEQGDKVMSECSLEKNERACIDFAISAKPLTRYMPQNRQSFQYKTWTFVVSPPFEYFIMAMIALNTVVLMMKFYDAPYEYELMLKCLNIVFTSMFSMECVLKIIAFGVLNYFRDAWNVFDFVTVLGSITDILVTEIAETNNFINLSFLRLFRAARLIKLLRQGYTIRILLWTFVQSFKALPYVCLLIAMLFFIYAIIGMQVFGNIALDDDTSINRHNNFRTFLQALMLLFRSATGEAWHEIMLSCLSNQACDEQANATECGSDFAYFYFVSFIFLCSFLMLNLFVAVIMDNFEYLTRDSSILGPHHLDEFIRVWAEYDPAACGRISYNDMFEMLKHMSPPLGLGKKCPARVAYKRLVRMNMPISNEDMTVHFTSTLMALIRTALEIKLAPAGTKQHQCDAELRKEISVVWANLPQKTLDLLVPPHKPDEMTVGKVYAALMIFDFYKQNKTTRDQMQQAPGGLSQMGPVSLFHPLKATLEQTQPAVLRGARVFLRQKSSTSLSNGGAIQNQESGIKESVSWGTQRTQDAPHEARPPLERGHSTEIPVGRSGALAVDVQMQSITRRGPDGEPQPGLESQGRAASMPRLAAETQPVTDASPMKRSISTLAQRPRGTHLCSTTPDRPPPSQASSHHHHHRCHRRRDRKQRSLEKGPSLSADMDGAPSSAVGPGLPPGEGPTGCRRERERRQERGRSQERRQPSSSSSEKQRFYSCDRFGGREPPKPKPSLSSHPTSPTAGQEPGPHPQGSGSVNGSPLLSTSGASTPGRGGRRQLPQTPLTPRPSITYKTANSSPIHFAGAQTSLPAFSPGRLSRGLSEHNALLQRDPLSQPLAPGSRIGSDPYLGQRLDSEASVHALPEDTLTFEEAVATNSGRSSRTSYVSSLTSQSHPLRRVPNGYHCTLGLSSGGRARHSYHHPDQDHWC
T1 sequence (P54284 whole entry partner): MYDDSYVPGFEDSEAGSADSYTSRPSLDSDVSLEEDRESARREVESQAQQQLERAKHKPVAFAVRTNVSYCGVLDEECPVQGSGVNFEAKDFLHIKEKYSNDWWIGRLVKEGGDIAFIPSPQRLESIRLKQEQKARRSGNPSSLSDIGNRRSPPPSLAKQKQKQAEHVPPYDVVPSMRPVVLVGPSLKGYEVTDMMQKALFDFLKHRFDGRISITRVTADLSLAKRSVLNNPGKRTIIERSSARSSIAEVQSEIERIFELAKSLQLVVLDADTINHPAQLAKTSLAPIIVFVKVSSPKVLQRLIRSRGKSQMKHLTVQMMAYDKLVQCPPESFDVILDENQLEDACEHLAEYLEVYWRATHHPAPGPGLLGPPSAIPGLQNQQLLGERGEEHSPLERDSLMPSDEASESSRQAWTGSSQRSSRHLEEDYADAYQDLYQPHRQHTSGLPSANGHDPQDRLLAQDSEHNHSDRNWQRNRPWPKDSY
T1 sequence (P54289 25-956 partner limits assumed): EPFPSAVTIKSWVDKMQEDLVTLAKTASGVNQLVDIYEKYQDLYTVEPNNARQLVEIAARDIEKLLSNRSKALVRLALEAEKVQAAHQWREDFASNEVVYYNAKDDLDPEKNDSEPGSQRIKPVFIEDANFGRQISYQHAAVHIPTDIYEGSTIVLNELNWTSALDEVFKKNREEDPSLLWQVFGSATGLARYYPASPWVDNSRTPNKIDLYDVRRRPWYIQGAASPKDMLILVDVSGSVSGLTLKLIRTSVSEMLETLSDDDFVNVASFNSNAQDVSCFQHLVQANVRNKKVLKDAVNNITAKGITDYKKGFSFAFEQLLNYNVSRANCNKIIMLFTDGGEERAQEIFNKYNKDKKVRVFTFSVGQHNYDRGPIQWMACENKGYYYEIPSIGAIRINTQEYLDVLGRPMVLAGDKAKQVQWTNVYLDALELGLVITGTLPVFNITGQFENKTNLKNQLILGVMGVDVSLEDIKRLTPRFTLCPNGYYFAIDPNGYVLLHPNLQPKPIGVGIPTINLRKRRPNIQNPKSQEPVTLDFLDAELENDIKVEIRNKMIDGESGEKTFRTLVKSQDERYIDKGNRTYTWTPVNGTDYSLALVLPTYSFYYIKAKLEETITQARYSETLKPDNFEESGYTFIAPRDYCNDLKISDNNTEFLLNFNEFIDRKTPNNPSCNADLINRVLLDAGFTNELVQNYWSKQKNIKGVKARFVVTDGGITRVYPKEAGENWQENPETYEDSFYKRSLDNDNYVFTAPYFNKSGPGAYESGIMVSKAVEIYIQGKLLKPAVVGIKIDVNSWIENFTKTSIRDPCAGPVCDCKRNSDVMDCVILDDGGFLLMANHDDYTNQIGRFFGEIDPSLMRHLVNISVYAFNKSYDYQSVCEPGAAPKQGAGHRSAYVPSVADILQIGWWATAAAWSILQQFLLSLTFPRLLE
T1 sequence (P54289 957-1103 partner limits assumed): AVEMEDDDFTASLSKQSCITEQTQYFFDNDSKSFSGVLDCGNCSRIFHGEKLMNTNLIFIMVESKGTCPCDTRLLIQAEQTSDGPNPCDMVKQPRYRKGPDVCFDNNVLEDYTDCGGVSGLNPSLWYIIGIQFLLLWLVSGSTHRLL
Type: cell-based
Description: Compounds were tested for effect on calcium flux in cells endogenously expressing human Cav2.2. Specifically, IMR32 cells endogenously expressing human Cav2.2 were assayed for Ca^2+ influx using a no-wash calcium indicator dye (Calcium 4 dye: Molecular Probes) and FLIPR technology (Lubin, M L; et al. Assay and Drug Development Technologies, 2006, 4(6), 689-694). The IMR32 cells were maintained in MEM media containing 10% (v/v) FBS, 1% (v/v) antibiotic/antimitotic, 1% (v/v) sodium pyruvate and 1% (v/v) MEM NEAA. Following dissociation in 0.05% (v/v) trypsin/EDTA, cells were seeded into black 1×96-well plates (Corning Cellbind) at a density of 1−1.2×10^5 cells/well and incubated in the maintenance media above for 48 hours at 37° C. Immediately prior to performing the assay the media was removed and cells were loaded for 1.5 hours with 1× Calcium 4 dye prepared in HBSS (137 mM NaCl, 5.4 mM KCl, 0.25 mM Na2HPO4, 0.44 mM KH2PO4, 1.3 mM CaCl2, 1 mM MgSO4, 4.2 mM NaHCO3) containing HEPES pH 7.4 at room temperature. After dye loading and a subsequent 60 minute pre-incubation with compounds (full log dilutions from 10 μM to 0.1 nM) in the presence of 1.3 mM CaCl2 and 2 μM nifedipine to block endogenous L-type channels, the external Ca^2+ concentration was increased to 5 mM CaCl2 and the cells concomitantly depolarized with 80 mM KCl to assay channel activity.
To determine the IC50 values, the percent inhibition of the compound at each concentration was determined relative to the activity in the absence of inhibitor, and data was fitted using non-linear regression sigmoidal dose response curve analysis with GraphPad Prism®. Unless otherwise indicated (*), the reported values are average values from at least two runs (i.e., n≧2).
`O=S(=O)(c1ccc(C(F)(F)F)cc1)N1CCCN2C[C@H](Oc3cnc(C4CC4)cn3)C[C@H]2C1` [Example 2, (8R,9aS)-8-[(5-cyclopropylpyrazin-2-yl)oxy]-2-{[4-(trifluoromethyl)phenyl]sulfonyl}octahydro-1H-pyrrolo[1,2-a][1,4]diazepane] showed an IC50 of 200 nM.
`O=C1[C@@H](Oc2ccc(C(F)(F)F)cn2)C[C@H]2CN(S(=O)(=O)c3cccc(C(F)(F)F)c3)CCCN12` [Example 3, (8S,9aS)-2-{[3-(trifluoromethyl)phenyl]sulfonyl}-8-{[5-(trifluoromethyl)pyridin-2-yl]oxy}octahydro-7H-pyrrolo[1,2-a][1,4]diazepin-7-one] showed an IC50 of 1250 nM.
`O=C1[C@H](Oc2ccc(C(F)(F)F)cn2)C[C@H]2CN(S(=O)(=O)c3cccc(C(F)(F)F)c3)CCCN12` [Example 4, (8R,9aS)-2-{[3-(trifluoromethyl)phenyl]sulfonyl}-8-{[5-(trifluoromethyl)pyridin-2-yl]oxy}octahydro-7H-pyrrolo[1,2-a][1,4]diazepin-7-one] showed an IC50 of 880 nM.
With `O=C1[C@@H](Oc2ccc(C(F)(F)F)cn2)C[C@H]2CN(S(=O)(=O)c3ccc(C(F)(F)F)cc3)CCCN12` [Example 5, (8S,9aS)-2-{[4-(trifluoromethyl)phenyl]sulfonyl}-8-{[5-(trifluoromethyl)pyridin-2-yl]oxy}octahydro-7H-pyrrolo[1,2-a][1,4]diazepin-7-one] the IC50 was 1760 nM.
`O=C1[C@H](Oc2ccc(C(F)(F)F)cn2)C[C@H]2CN(S(=O)(=O)c3ccc(C(F)(F)F)cc3)CCCN12` [Example 6, (8R,9aS)-2-{[4-(trifluoromethyl)phenyl]sulfonyl}-8-{[5-(trifluoromethyl)pyridin-2-yl]oxy}octahydro-7H-pyrrolo[1,2-a][1,4]diazepin-7-one] gave an IC50 of 910 nM.
Work on `O=C(c1ccc(F)cc1)N1CCCN2C[C@H](Oc3cnc(C4CC4)cn3)C[C@H]2C1` [Example 8, [(8R,9aS)-8-[(5-cyclopropylpyrazin-2-yl)oxy]hexahydro-1H-pyrrolo[1,2-a][1,4]diazepin-2(3H)-yl](4-fluorophenyl)methanone] yielded an IC50 of 3040 nM.
`O=C(c1cccc(OC(F)(F)F)c1)N1CCCN2C[C@H](Oc3cnc(C4CC4)cn3)C[C@H]2C1` [Example 9, [(8R,9aS)-8-[(5-cyclopropylpyrazin-2-yl)oxy]hexahydro-1H-pyrrolo[1,2-a][1,4]diazepin-2(3H)-yl][3-(trifluoromethoxy)phenyl]methanone] showed an IC50 of 1350 nM.
For `O=C(c1cccc(C(F)(F)F)c1F)N1CCCN2C[C@H](Oc3cnc(C4CC4)cn3)C[C@H]2C1` [Example 10, [(8R,9aS)-8-[(5-cyclopropylpyrazin-2-yl)oxy]hexahydro-1H-pyrrolo[1,2-a][1,4]diazepin-2(3H)-yl][2-fluoro-3-(trifluoromethyl)phenyl]methanone], the IC50 was 920 nM.
With `O=C(c1ccc(C(F)(F)F)cn1)N1CCCN2C[C@H](Oc3cnc(C4CC4)cn3)C[C@H]2C1` [Example 11, [(8R,9aS)-8-[(5-cyclopropylpyrazin-2-yl)oxy]hexahydro-1H-pyrrolo[1,2-a][1,4]diazepin-2(3H)-yl][5-(trifluoromethyl)pyridin-2-yl]methanone] the IC50 was 9270 nM.
In the case of `O=C(c1cccc(C(F)(F)F)n1)N1CCCN2C[C@H](Oc3cnc(C4CC4)cn3)C[C@H]2C1` [Example 12, [(8R,9aS)-8-[(5-cyclopropylpyrazin-2-yl)oxy]hexahydro-1H-pyrrolo[1,2-a][1,4]diazepin-2(3H)-yl][6-(trifluoromethyl)pyridin-2-yl]methanone], the IC50 is reported as 6220 nM.
`O=C(c1ccc(F)c(C(F)(F)F)c1)N1CCCN2C[C@H](Oc3cnc(C4CC4)cn3)C[C@H]2C1` [Example 14, [(8R,9aS)-8-[(5-cyclopropylpyrazin-2-yl)oxy]hexahydro-1H-pyrrolo[1,2-a][1,4]diazepin-2(3H)-yl][4-fluoro-3-(trifluoromethyl)phenyl]methanone] was tested, and the IC50 was 1450 nM.
For `O=C(c1ccc(C(F)(F)F)c(F)c1)N1CCCN2C[C@H](Oc3cnc(C4CC4)cn3)C[C@H]2C1` [Example 15, [(8R,9aS)-8-[(5-cyclopropylpyrazin-2-yl)oxy]hexahydro-1H-pyrrolo[1,2-a][1,4]diazepin-2(3H)-yl][3-fluoro-4-(trifluoromethyl)phenyl]methanone], the IC50 was 1330 nM.
For `O=C(c1ccc(F)c(Cl)c1)N1CCCN2C[C@H](Oc3cnc(C4CC4)cn3)C[C@H]2C1` [Example 16, (3-chloro-4-fluorophenyl)[(8R,9aS)-8-[(5-cyclopropylpyrazin-2-yl)oxy]hexahydro-1H-pyrrolo[1,2-a][1,4]diazepin-2(3H)-yl]methanone], the IC50 was 2300 nM.
`O=C(c1cc(C(F)(F)F)ccc1F)N1CCCN2C[C@H](Oc3cnc(C4CC4)cn3)C[C@H]2C1` [Example 17, [(8R,9aS)-8-[(5-cyclopropylpyrazin-2-yl)oxy]hexahydro-1H-pyrrolo[1,2-a][1,4]diazepin-2(3H)-yl][2-fluoro-5-(trifluoromethyl)phenyl]methanone] showed an IC50 of 1580 nM.
In the case of `O=C(c1ccc(C(F)(F)F)cc1F)N1CCCN2C[C@H](Oc3cnc(C4CC4)cn3)C[C@H]2C1` [Example 18, [(8R,9aS)-8-[(5-cyclopropylpyrazin-2-yl)oxy]hexahydro-1H-pyrrolo[1,2-a][1,4]diazepin-2(3H)-yl][2-fluoro-4-(trifluoromethyl)phenyl]methanone], the IC50 is reported as 1190 nM.
`FC(F)(F)c1cccc(N2CCCN3C[C@H](Oc4cnc(C5CC5)cn4)C[C@H]3C2)n1` [Example 20, (8R,9aS)-8-[(5-cyclopropylpyrazin-2-yl)oxy]-2-[6-(trifluoromethyl)pyridin-2-yl]octahydro-1H-pyrrolo[1,2-a][1,4]diazepane] showed an IC50 of 750 nM.
`O=C1[C@H](Oc2cnc(C3CC3)cn2)C[C@H]2CN(c3ccc(C(F)(F)F)cn3)CCCN12` [Example 21, (8R,9aS)-8-[(5-cyclopropylpyrazin-2-yl)oxy]-2-[5-(trifluoromethyl)pyridin-2-yl]octahydro-7H-pyrrolo[1,2-a][1,4]diazepin-7-one] gave an IC50 of 3470 nM.
`O=C1[C@@H]2C[C@@H](Oc3cnc(C4CC4)cn3)CN2CCCN1Cc1cccc(C(F)(F)F)c1` [Example 22, (8R,9aS)-8-[(5-cyclopropylpyrazin-2-yl)oxy]-2-[3-(trifluoromethyl)benzyl]octahydro-1H-pyrrolo[1,2-a][1,4]diazepin-1-one] showed an IC50 of 1720 nM.
For `O=C1[C@@H]2C[C@@H](Oc3cnc(C4CC4)cn3)CN2CCCN1Cc1ccc(C(F)(F)F)cc1` [Example 23, (8R,9aS)-8-[(5-cyclopropylpyrazin-2-yl)oxy]-2-[4-(trifluoromethyl)benzyl]octahydro-1H-pyrrolo[1,2-a][1,4]diazepin-1-one], the IC50 was 980 nM.
For `O=C1[C@H]2C[C@@H](Oc3cnc(C4CC4)cn3)CN2CCCN1Cc1ccc(C(F)(F)F)cc1` [Example 24, (8R,9aR)-8-[(5-cyclopropylpyrazin-2-yl)oxy]-2-[4-(trifluoromethyl)benzyl]octahydro-1H-pyrrolo[1,2-a][1,4]diazepin-1-one], the IC50 was 2940 nM.
Work on `O=C1[C@@H]2C[C@@H](Oc3cnc(C4CC4)cn3)CN2CCCN1Cc1ccc(C(F)(F)F)c(F)c1` [Example 25, (8R,9aS)-8-[(5-cyclopropylpyrazin-2-yl)oxy]-2-[3-fluoro-4-(trifluoromethyl)benzyl]octahydro-1H-pyrrolo[1,2-a][1,4]diazepin-1-one] yielded an IC50 of 1190 nM.
